Patent US20090110671A1, “AGENT FOR ENHANCHING THE PRODUCTION OF COLLAGEN AND IT'S USE” (priority 2005, published 2009)

Experiments:
[1] = system: skin wrinkles/finely-wrinkles and flabby skin; test: Experiment 5: self-evaluation of lotions on skin wrinkles/finely-wrinkles and flabby skin, four months; format: in vivo, human; settings: 4 months; for Evaluation A (remarkably efficacious) / Evaluation B (efficacious) / Evaluation C (slightly efficacious) / Evaluation D (inefficacious): lotion
Description: The following experiment was conducted to examine the influence of α,α-trehalose or saccharide derivatives thereof and hyaluronic acid and/or chondroitin sulfate on the skin. Since there exists a relatively constant amount of L-ascorbic acid in vivo, the collagen production by L-ascorbic acid proceeds constantly. Based on the following basic formulation for lotion and the combination and composition in Table 5, 100 parts by weights of a lotion was prepared by adding to the basic formulation sodium hyaluronate, chondroitin sulfate, hydrous crystalline α,α-trehalose, a cosmetic grade specimen commercialized by Hayashibara Biochemical Laboratories Inc., Okayama, Japan, and “[…]”, a product name of a syrup having a solid content of about 75% and containing, on a dry solid basis, about 53% by weight of α-maltosyl α,α-trehalose and about 5% by weight of other saccharide derivatives of α,α-trehalose, and an adequate amount of refined water. In Table 5, the respective amounts of the added saccharide are expressed on a dry solid basis. The syrup containing saccharide derivatives of α,α-trehalose was added in an amount of the saccharide derivatives as shown in Table 5. Eleven women as volunteers, who had been suffering from skin wrinkles/finely-wrinkles or flabby skin, were allowed to wash their faces with any of the lotions having compositions in Table 5 three times a day for four months and then allowed to evaluate themselves about their face-skin conditions by comparing with those before use of the lotions.

[2] = system: flabby skin or skin wrinkles/finely-wrinkles; test: Experiment 6: self-evaluation of lotions with AMP and/or CoQ10 on flabby skin or skin wrinkles/finely-wrinkles, three months; format: in vivo, human; settings: lotion, 3 months
From the text: Eleven women as volunteers, who had been suffering from skin wrinkles/finely-wrinkles or flabby skin, were allowed to wash their faces with any of the lotions having compositions in Table 5 three times a day for four months and then allowed to evaluate themselves about their face-skin conditions by comparing with those before use of the lotions. […] The influence of a combination use of α,α-trehalose or saccharide derivatives thereof, sodium hyaluronate and/or chondroitin sulfate, and adenosine monophosphate (may be abbreviated as “AMP”, hereinafter) and/or coenzyme Q10 (may be abbreviated as “CoQ10”, hereinafter) on the skin was examined by the following experiment. One hundred parts by weight of respective lotions were prepared by adding to fresh preparations of the same lotion with the basic composition ratio as used in Experiment 5 sodium hyaluronate, chondroitin sulfate, hydrous crystalline α,α-trehalose, a cosmetic grade specimen commercialized by Hayashibara Biochemical Laboratories Inc., Okayama, Japan, and “[…]”, a product name of a syrup having saccharide derivatives of α,α-trehalose commercialized by Hayashibara Biochemical Laboratories Inc., Okayama, Japan, AMP, and CoQ10 according to the combinations and compositions as in Table 6 below. The amounts of added saccharides are represented based on a dry solid basis. The syrup containing saccharide derivatives of α,α-trehalose was added to each lotion to give respective composition ratios as in Table 6. Any of the lotions was allowed to be used every day by 11 females who had been suffering from flabby skin or skin wrinkles/finely-wrinkles, three times a day for three months, and the results were evaluated on flabby skin or skin wrinkles/finely-wrinkles by the method similarly as in Experiment 5.

[3] = added saccharide 0.05 part by weight, 3 times a day
[4] = added saccharide 0.1 part by weight, 3 times a day
[5] = added saccharide 1 part by weight, 3 times a day
[6] = added saccharide 2 + chondroitin sulfate 0.5 part by weight
[7] = added saccharide 2 + sodium hyaluronate 0.25 + chondroitin sulfate 0.25 part by weight
[8] = added saccharide 2 + sodium hyaluronate 0.5 part by weight
[9] = added saccharide 2 parts by weight, 3 times a day
[10] = added saccharide 10 parts by weight, 3 times a day
[11] = added saccharide 20 parts by weight, 3 times a day
[12] = saccharide one part by weight + AMP 0.1 + CoQ10 0.1
[13] = saccharide one part by weight + AMP 0.2
[14] = saccharide one part by weight + CoQ10 0.2
[15] = saccharide one part by weight + sodium hyaluronate 0.1 + chondroitin sulfate 0.1 + AMP 0.1 + CoQ10 0.1
[16] = saccharide one part by weight + sodium hyaluronate 0.1 + chondroitin sulfate 0.1 + AMP 0.2
[17] = saccharide one part by weight + sodium hyaluronate 0.1 + chondroitin sulfate 0.1 + CoQ10 0.2
[18] = saccharide one part by weight + sodium hyaluronate 0.1 + chondroitin sulfate 0.1
[19] = saccharide one part by weight alone, 3 times a day

OC[C@H]1O[C@H](O[C@H]2O[C@H](CO)[C@@H](O)[C@H](O)[C@H]2O)[C@H](O)[C@@H](O)[C@@H]1O [α,α-trehalose]
5 number of volunteers: Evaluation C (slightly efficacious) [1, 4] | Evaluation B (efficacious) [1, 6] | Evaluation C (slightly efficacious) [1, 10] | Evaluation C (slightly efficacious) [1, 11] | Evaluation C (slightly efficacious) [2, 12] | Evaluation A (remarkably efficacious) [2, 15] | Evaluation B (efficacious) [2, 15]
4 number of volunteers: Evaluation D (inefficacious) [1, 4] | Evaluation B (efficacious) [1, 8] | Evaluation B (efficacious) [1, 9] | Evaluation C (slightly efficacious) [1, 9] | Evaluation B (efficacious) [2, 16] | Evaluation C (slightly efficacious) [2, 16] | Evaluation A (remarkably efficacious) [2, 17] | Evaluation C (slightly efficacious) [2, 17] | Evaluation B (efficacious) [2, 18] | Evaluation C (slightly efficacious) [2, 18]
0 number of volunteers: Evaluation A (remarkably efficacious) [1, 3] | Evaluation B (efficacious) [1, 3] | Evaluation A (remarkably efficacious) [1, 4] | Evaluation D (inefficacious) [1, 6] | Evaluation D (inefficacious) [1, 7] | Evaluation D (inefficacious) [1, 10] | Evaluation D (inefficacious) [1, 11] | Evaluation D (inefficacious) [2, 15] | Evaluation D (inefficacious) [2, 16] | Evaluation D (inefficacious) [2, 17]
six: volunteers who evaluated the lotions efficacious or more ([1]; lotions with 2 to 20 parts by weight of saccharide)
6 number of volunteers: Evaluation C (slightly efficacious) [1, 5] | Evaluation A (remarkably efficacious) [1, 7] | Evaluation C (slightly efficacious) [2, 13] | Evaluation C (slightly efficacious) [2, 14] | Evaluation C (slightly efficacious) [2, 19]
8 number of volunteers: Evaluation D (inefficacious) [1, 3]
1 number of volunteers: Evaluation D (inefficacious) [1, 5] | Evaluation D (inefficacious) [1, 8] | Evaluation D (inefficacious) [1, 9] | Evaluation D (inefficacious) [2, 12] | Evaluation D (inefficacious) [2, 13] | Evaluation A (remarkably efficacious) [2, 14] | Evaluation D (inefficacious) [2, 14] | Evaluation C (slightly efficacious) [2, 15] | Evaluation D (inefficacious) [2, 18] | Evaluation A (remarkably efficacious) [2, 19]
2 number of volunteers: Evaluation B (efficacious) [1, 4] | Evaluation A (remarkably efficacious) [1, 5] | Evaluation B (efficacious) [1, 5] | Evaluation C (slightly efficacious) [1, 7] | Evaluation A (remarkably efficacious) [1, 9] | Evaluation A (remarkably efficacious) [2, 12] | Evaluation A (remarkably efficacious) [2, 13] | Evaluation B (efficacious) [2, 13] | Evaluation A (remarkably efficacious) [2, 18] | Evaluation B (efficacious) [2, 19] | Evaluation D (inefficacious) [2, 19]
3 number of volunteers: Evaluation C (slightly efficacious) [1, 3] | Evaluation A (remarkably efficacious) [1, 6] | Evaluation C (slightly efficacious) [1, 6] | Evaluation B (efficacious) [1, 7] | Evaluation A (remarkably efficacious) [1, 8] | Evaluation C (slightly efficacious) [1, 8] | Evaluation A (remarkably efficacious) [1, 10] | Evaluation B (efficacious) [1, 10] | Evaluation A (remarkably efficacious) [1, 11] | Evaluation B (efficacious) [1, 11] | Evaluation B (efficacious) [2, 12] | Evaluation B (efficacious) [2, 14] | Evaluation A (remarkably efficacious) [2, 16] | Evaluation B (efficacious) [2, 17]
